Laboratory results as given in patent US6235761A, “Compound, composition and method for treating cancer” (priority 1999, dated 2001).

Tests used:
CAKI-1 renal tumor = assay: sc CAKI-1 renal tumor in athymic mice (Table 2); format: in vivo, human tumor in athymic mice (Ncr-nu); conditions: for T-C / Tumor-Free Survival/Total: days 19-23
Experimental: This Example illustrates the efficacy of penclomedine and 4-demethylpenclomedine in the treatment of cancer. MX-1 mammary tumor xenograft was subcutaneously implanted into mice, and the mice were exposed to the compounds. The testing of the mice was performed following a published procedure. See, e.g., Plowman et al., supra; Geran et al., Cancer Chemother. Rep., Part 2, 1-55 (1972); Developmental Therapeutics Program, Division of Cancer Treatment, NCI, in In Vivo Models 1976-1982, NIH Publication No. 84-2635, Washington D.C., U.S. Govt. Printing Office (1984).
This Example further illustrates the efficacy of penclomedine and 4-demethylpenclomedine in the treatment of cancer. The compounds were tested in vivo on mice by the procedure set forth in Example 2. The results obtained are set forth in Table 2 and confirm that 4-demethyl-penclomedine is active against cancer, particularly mammary, colon, and renal cancer.
^a Athymic mice (Ncr-nu) were implanted either intracranially (ic) with
18 human MX-1 mammary tumor cells or subcutaneously (sc) with fragments of
human tumors (CAKI-, renal; HT29, colon; MX-1, mammary).
^b The difference in the median of time poststaging for tumors to
double in mass: T (treated mice), C (control mice)

[1] = Distribution of penclomedine and its metabolites in mouse tissues; format: in vivo, CD2F1 mice; conditions: for level in liver: mouse liver versus other tissues
Experimental: CD2F1 Mice were obtained from Harlan Sprague-Dawley (Frederick, Md.). During the course of this study, mice were housed in polyethylene shoe box cages without bedding and given access to food and water. Four mice were used per time point.
^14 C-Penclomedine (specific activity 17.6 and 18.9 mCi/mM, labeled at CCl3) was obtained from Research Triangle Institute (Research Triangle Park, N.C.) and stored at -20° C. The site of radiolabel has been conserved in all penclomedine metabolites identified to date. The composition of the radioactive material was determined to be 99% ^14 C-penclomedine, by HPLC coupled with radiochemical detection.
^14 C-penclomedine (1 mCi/ml in ethanol) was added to the clinical penclomedine emulsion to give an activity of […] (4% ethanol final concentration). The mice were administered the above penclomedine formulation at 40 mg/kg (120 mg/m^2, […]) either intravenously via tail vein or orally via gavage. At 1, 2, 4, and 22 hours after intravenous administration and 2,4, 6, and 22 hours after oral administration, animals were euthanized with carbon dioxide and blood tissues were collected. Blood tissues from each time point were pooled. Blood was centrifuged and plasma and red cells were separated; tissues were homogenized in 3 volumes of 100 mM ammonium formate buffer pH 6.5. Urinary output was estimated by washing the cages with water after removing food and feces and concentrating these cage washings.
A 1 ml aliquot of tissue homogenate or a […] was acidified with 200 ml of 0.7 M ammonium phosphate pH 2.7, then 3 ml of ethyl acetate was added. This mixture was vortexed, centrifuged and the organic layer was collected. Fifty microliters of DMSO were added, and the ethyl acetate was concentrated to approximately […] with a stream of dry nitrogen. Fifty microliters of acetonitrile were added to this residue, and the resulting solution was analyzed by HPLC. Human plasma was processed identically to mouse plasma with the exception that 500 ml of plasma was extracted. Concentrated cage washings were analyzed by HPLC without further processing.
Plasma and tissue protein binding data were measured on the residue of the above extractions. The aqueous phase was washed with 5 ml of ethanol, centrifuged, and the ethanol insoluble precipitate was washed again with 5 ml ethanol. After centrifugation the pellet was resuspended in 0.5 ml 6 M guanidinium chloride, added to 10 ml 3a70B scintillation cocktail (Research Products International Corp., Mount Prospect, Ill.), and counted for ^14 C.
HPLC Assays: The HPLC system consisted of a Hewlett-Packard Series II 1090 liquid chromatograph with diode array detector (Hewlett-Packard, Palo Alto, Calif.). The column used was an Alltech Adsorbosphere HS C18 5 m 250×4.6 mm column (Alltech Associates, Deerfield, Ill.). The system used a gradient elution consisting of 100% 10 mM ammonium phosphate buffer pH 2.7 progressing to 100% acetonitrile over 25 minutes at 1 ml/min. Detection was performed by means of ultraviolet absorbance at 240 nm as well as by means of radioactivity using a Radiomatic Flo-One/Beta A140 radioactive flow detector (Packard Instrument Co., Downers Grove, Ill.) equipped with a […] and Flo-Scint VI scintillation cocktail at a 2:1 ratio.
^14 C-Penclomedine derived radioactivity was determined in mouse urine samples collected at 1, 2, 4, and 22 hours following intravenous and oral administration of^14 C-penclomedine. […] There were considerable differences in metabolite distribution among the different tissues. […] Most compounds present in the 2 hour samples were detectable in the 22 hour samples at levels from 10% to 50% of those seen at 2 hours.

dogs = conditions: cited from earlier work
[2] = cited from earlier work
rats = conditions: dose related; during or immediately after infusion; cited from earlier work
[3] = test system: patients with advanced solid tumors; conditions: cited from earlier work

COc1nc(C(Cl)(Cl)Cl)c(Cl)c(O)c1Cl [4-Demethylpenclomedine, 3,5-dichloro-2-methoxy-4-hydroxy-6-(trichloromethyl)-pyridine]
T-C (CAKI-1 renal tumor; 90 mg/kg/dose IP): 14.5 days
Tumor-Free Survival/Total (CAKI-1 renal tumor; 90 mg/kg/dose IP): 0/5
activity against renal tumors (T-C) (CAKI-1 renal tumor; Table 2): active against MX-1, colon, and renal tumors
accumulation in fatty tissues compared with penclomedine ([1]; mouse): does not accumulate in fatty tissues as much as penclomedine
level in liver ([1]; 14C-penclomedine dosed): liver contained the highest levels of demethylpenclomedine

COc1nc(C(Cl)(Cl)Cl)c(Cl)c(OC)c1Cl [Penclomedine, 3,5-dichloro-2,4-dimethoxy-6-(trichloromethyl)pyridine]
T-C (CAKI-1 renal tumor; 135 mg/kg/dose IP): 15.3 days
Tumor-Free Survival/Total (CAKI-1 renal tumor; 135 mg/kg/dose IP): 0/5
Tissue Concentration ([1]; brain, 2 hours, i.v. 14C-penclomedine 40 mg/kg): 1.30 nmoles/gram wet tissue
Tissue Concentration ([1]; brain, 2 hours, p.o. 14C-penclomedine 40 mg/kg): 2.16 nmoles/gram wet tissue
Tissue Concentration ([1]; carcass, 2 hours, i.v. 14C-penclomedine 40 mg/kg): 14.8 nmoles/gram wet tissue
Tissue Concentration ([1]; carcass, 2 hours, p.o. 14C-penclomedine 40 mg/kg): 55.2 nmoles/gram wet tissue
Tissue Concentration ([1]; carcass, 22 hours, i.v. 14C-penclomedine 40 mg/kg): 5.15 nmoles/gram wet tissue
Tissue Concentration ([1]; carcass, 22 hours, p.o. 14C-penclomedine 40 mg/kg): 2.16 nmoles/gram wet tissue
Tissue Concentration ([1]; fat, 2 hours, i.v. 14C-penclomedine 40 mg/kg): 15.8 nmoles/gram wet tissue
Tissue Concentration ([1]; fat, 2 hours, p.o. 14C-penclomedine 40 mg/kg): 18.55 nmoles/gram wet tissue
Tissue Concentration ([1]; fat, 22 hours, i.v. 14C-penclomedine 40 mg/kg): 8.90 nmoles/gram wet tissue
Tissue Concentration ([1]; kidney, 2 hours, i.v. 14C-penclomedine 40 mg/kg): 6.45 nmoles/gram wet tissue
Tissue Concentration ([1]; kidney, 2 hours, p.o. 14C-penclomedine 40 mg/kg): 7.30 nmoles/gram wet tissue
Tissue Concentration ([1]; kidney, 22 hours, i.v. 14C-penclomedine 40 mg/kg): 1.21 nmoles/gram wet tissue
Tissue Concentration ([1]; kidney, 22 hours, p.o. 14C-penclomedine 40 mg/kg): 0.85 nmoles/gram wet tissue
Tissue Concentration ([1]; liver, 2 hours, i.v. 14C-penclomedine 40 mg/kg): 0.69 nmoles/gram wet tissue
Tissue Concentration ([1]; liver, 2 hours, p.o. 14C-penclomedine 40 mg/kg): 1.35 nmoles/gram wet tissue
Tissue Concentration ([1]; liver, 22 hours, p.o. 14C-penclomedine 40 mg/kg): 0.38 nmoles/gram wet tissue
level in liver ([1]; 14C-penclomedine dosed): the lowest levels of penclomedine
tissues with highest levels ([1]; mouse, 14C-penclomedine dosed): Highest levels of penclomedine were detected in the fat and carcass
detectability in 2 hour tissue samples ([1]; mouse, 2 hours): All 2 hour tissue samples contained detectable amounts of penclomedine
plasma penclomedine levels associated with severe emesis and seizures (dogs): above 30 μM
detectability in the nervous system ([2]; during the time period of neurologic symptoms, rats, O'Reilly et al.): penclomedine but not its metabolite is detectable in the nervous system
predominant radioactive species in the brain ([2]; tumor-bearing rats): the predominant radioactive species in the brain was ^14 C-penclomedine
neurotoxicity in rats (rats): muscle tremors, incoordination, convulsions and reduced activity
toxicities reported in preclinical and early clinical studies ([3]; human, in vivo): Neurological and hematological toxicities
principal dose limiting toxicity ([3]; one hour infusion for 5 consecutive days, advanced solid tumors): Neurotoxicity, consisting of dysmetria, ataxia, and vertigo
